Consider one substance from publication PMC4853826 (European heart journal. Cardiovascular pharmacotherapy, 2015).

Values joined by “and” are separate entries in the source; they are usually repeats but may differ in a detail not shown here. Equal entries are not always repeated.

The subject of one data set is neprilysin (NEP). The following applies: cited from earlier work.
Another data set deals with normal canines. In words: In vivo renal function, peptide infusion in normal canines. Further details: species or system canine. To be noted: for RBF / GFR / DFRNa (distal fractional reabsorption of Na+) / PFRNa (proximal fractional reabsorption of Na+) / MAP: SEM.
[1] abbreviates: Post-I (after 30-min washout), lithium clearance, mean ± SEM.
The mark [2] stands for this setting: Pre-I (prior to infusion, baseline), lithium clearance technique, mean ± SEM.
Setting [3] is: normal canines, infusion 32 mmol/kg/min.

Take “CNP: native C-type natriuretic peptide, 22 amino acids, selective pGC-B activator”: the “susceptibility to enzymatic degradation by NEP (in words)” value with neprilysin (NEP) is listed as “highly susceptible”. In addition, the RBF turned out to be 294 ± 31 mL/min in the data set on normal canines (30 min I (16th-45th min of infusion, 32 mmol/kg/min), mean ± SEM); 278 ± 29 mL/min in the data set with normal canines (60 min I (46th-75th min of infusion, 32 mmol/kg/min), mean ± SEM); 270 ± 25 mL/min in the data set with normal canines (Post-I (after 30-min washout), mean ± SEM); 273 ± 26 mL/min in the data set on normal canines (Pre-I (prior to infusion, baseline), electromagnetic flow probe, mean ± SEM). For the same substance, the GFR in the data set with normal canines (Post-I (after 30-min washout), inulin clearance, mean ± SEM) turned out to be 48.8 ± 5.6 mL/min; with normal canines (dog, in vivo), 52.3 ± 5.1 mL/min. The “DFRNa (distal fractional reabsorption of Na+)” value came out at 97±0.8% in the data set on normal canines (setting [1]) and 98±0.6% with normal canines (setting [2]). For the same substance, the figures for the “PFRNa (proximal fractional reabsorption of Na+)” value in the data set with normal canines (setting [1]) and with normal canines (setting [2]) were 73±2% and 80±3%, respectively. In addition, the MAP was 127±4 mmHg and 128±4 mmHg with normal canines (dog, in vivo, iv); 123±4 mmHg and 128±4 mmHg in the data set on normal canines (dog, in vivo). Further, in the data set with normal canines (setting [3]), the “net renal generation of cGMP (in words)” value was “unchanged”. Further, the “plasma cGMP (in words)” value with normal canines (setting [3]) was “modestly increased”. Moreover, the “urinary cGMP excretion (in words)” value in the data set with normal canines (setting [3]) is recorded as “unchanged”.
